{"source": "patent US20100234238A1", "about": "“METHOD FOR PROFILING KINASE INHIBITORS” (Janssen Pharmaceutica N V, priority 2006, published 2010)", "system": "tyrosine kinase activity in cell line lysates", "assay": "Peptide array profiling of 9 cell line lysates in the presence of MTKI or Tarceva", "type": "biochemical", "details": "5 μM", "experimental": "To test whether other EGFR inhibitors, related to MTKI, such as Tarceva (erlotinib; OSI pharmaceuticals), are also amenable to this response prediction methodology, 9 cell lines were profiled in the presence of MTKI, or Tarceva (5 μM in both cases). […] The value of the previously derived MTKI prediction peptides is illustrated in Tables 6A to C. Based on these peptides also response to Tarceva can be predicted with identical accuracy as for MTKI (and with the same false predictions, in casu H2009 and MOLT4).", "data": [{"smiles": "COc1cc2ncnc3c2cc1OCCCCCN(C)Cc1ccc(Br)cc1N3", "note": "[MTKI, 4,6-ethanediylidenepyrimido[4,5-b][6,1,12]benzoxadiazacyclopentadecine, 17-bromo-8,9,10,11,12,13,14,19-octahydro-20-methoxy-13-methyl-]", "values": [{"measurement": "potency in lysate inhibition profile compared to Tarceva", "setting": "H3255 lysate", "value": "slightly more potent"}, {"measurement": "potency in lysate inhibition profile compared to Tarceva", "setting": "N87 lysate", "value": "more potent"}]}]}
